Reference: patent US20220347130A1, “ANTI-OBESITY COMPOSITION CONTAINING COLCHICINE AND METFORMIN AS EFFECTIVE AGENTS” (priority 2021, published 2022)
Like-named read-outs stand apart in the source and are kept apart here.

Experiments:
[1] = format: in vivo, rats; settings: oral once a day; for blood levels of AST and ALT (in words): HFD obesity-induced rats, colchicine 50, 100, 200 μg/kg and/or metformin 200 mg/kg, Table 1; for ALT / AST: HFD rats, 12 weeks, blood
Procedure: Finally, after the drugs were administered to the obesity-induced rats, changes in blood levels of aspartate aminotransferase (AST) and alanine transaminase (ALT) were measured and illustrated in Table 1 below.

[2] = Epididymal fat weight of HFD obesity-induced rats; format: in vivo; settings: for weight of epididymal fat: colchicine 50, 100, 200 μg/kg and/or metformin 200 mg/kg, oral once a day, FIG. 3; for effect of reducing the fat of the obesity-induced rats: summary of the results
Procedure: Next, after the drugs were administered to the obesity-induced rats, the weights of epididymal fat were measured and the results thereof was illustrated in FIG. 3.

SREBP-1c = test: Expression of obesity-related gene SREBP-1c in epididymal fat of obesity-induced rats; format: in vivo; settings: epididymal fat of HFD obesity-induced rats; colchicine 50, 100, 200 μg/kg and/or metformin 200 mg/kg, oral once a day; FIG. 4
Procedure: (§1) Meanwhile, after the drugs were administered to the obesity-induced rats, the expression of obesity-related genes SREBP-1c and FAS was measured, and the results thereof were illustrated in FIGS. 4A and 4B.

[3] = system: FAS (fatty acid synthase); test: Expression of obesity-related gene FAS in epididymal fat of obesity-induced rats; format: in vivo; settings: epididymal fat of HFD obesity-induced rats; colchicine 50, 100, 200 μg/kg and/or metformin 200 mg/kg, oral once a day; FIG. 4
Procedure: as §1

[4] = HFD obesity-induced rats; colchicine 50, 100, 200 μg/kg and/or metformin 200 mg/kg, oral once a day; FIG. 1
Procedure: Low fat diet (LFD: containing 10 kcal % fat) or high fat diet (HFD: containing 60 kcal % fat) feed was taken autonomously for 12 weeks in 6-week-old C57BL/6J sp. male rats. The obesity-induced rats due to the intake of the HFD feed additionally took the HFD feed for 12 weeks and were administered with colchicine of 50, 100, and 200 μg/kg or metformin of 200 mg/kg alone or co-administered with the colchicine and the metformin. A control drug, Xenical (orlistat ingredient) was administered alone at 60 mg/kg. All drugs were orally administered once a day.
Changes in body weight of obesity-induced rats were measured according to single administration of colchicine or metformin and co-administration of colchicine and metformin, which were illustrated in FIG. 1.

Row | SMILES | blood levels of AST and ALT (in words) [1] | ALT ([1]; metformin 200 mg/kg) [U/L] | AST ([1]; metformin 200 mg/kg) [U/L] | weight of epididymal fat [2] | effect of reducing the fat of the obesity-induced rats [2] | expression of SREBP-1c (SREBP-1c) | expression of FAS [3] | changes in body weight (increase in body weight induced by the HFD) [4] | ALT ([1]; orlistat 60 mg/kg) [U/L] | AST ([1]; orlistat 60 mg/kg) [U/L] | ALT ([1]; colchicine 50 μg/kg) [U/L] | AST ([1]; colchicine 50 μg/kg) [U/L] | ALT ([1]; colchicine 100 μg/kg) [U/L] | AST ([1]; colchicine 100 μg/kg) [U/L] | ALT ([1]; colchicine 200 μg/kg) [U/L] | AST ([1]; colchicine 200 μg/kg) [U/L]
1 | CN(C)C(=N)N=C(N)N [Metformin, metformin] | slightly reduced | 156.41 ± 2.77 | 284.37 ± 2.78 | slightly reduced | a slight effect | slightly reduced | slightly reduced | slightly reduced | – | – | – | – | – | – | – | –
2 | CCCCCCCCCCC[C@@H](C[C@@H]1OC(=O)[C@H]1CCCCCC)OC(=O)[C@H](CC(C)C)NC=O [Orlistat, orlistat] | – | – | – | – | – | – | – | – | 175.20 ± 3.11 | 203.31 ± 3.72 | – | – | – | – | – | –
3 | COc1cc2c(c(OC)c1OC)-c1ccc(OC)c(=O)cc1[C@@H](NC(C)=O)CC2 [Colchicine, colchicine] | not changed | – | – | not changed | almost no effect | not changed | not changed | not changed | – | – | 175.08 ± 2.78 | 372.26 ± 3.75 | 164.5 ± 2.11 | 346.91 ± 3.90 | 157.38 ± 3.3 | 309.24 ± 2.61
